Experimental data reported in patent US4311645A, “Synthesis of SRS-active compounds” (Hoffmann-La Roche Inc., priority 1980, dated 1982).
Counter-ions that a name gives are not always drawn. Like-named read-outs stand apart in the source and are kept apart here. Each block holds one molecule with its values, some of them ahead of it.

How the values were obtained:
[1] = tested on: guinea pig ileum; test: SRS-A activity: contraction of isolated guinea pig ileum (bioassay); format: cell-based; details: read-out: EC50 (concentration giving 50% of the maximal contraction of the ileum produced by natural SRS-A), 37° C, atropine sulfate 10^-6 M and pyrilamine maleate 10^-6 M in bath, average ± S.E., n = 2-5 ileums
Experimental: SRS-A was assayed utilizing the procedure described by Orange and Austen, J. Immunol. […] The segment of ileum was suspended in a 10 ml organ bath containing Tyrodes solution. The ileum was attached to a strain gauge transducer and contractions were recorded on a strip chart recorder. The bath contained 10^-6 M atropine sulfate to block contractions which might be caused by acetylcholine and 10^-6 M pyrilamine maleate to block histamine-induced contractions. The bath was maintained at 37° C. and gassed with a mixture of 95% O2 and 5% CO2. The concentration of SRS-A in the filtrate obtained by challenging lung tissue with egg albumin was determined by comparing the contraction solicited by a given volume of the filtrate with the contraction elicited by […] of histamine (in the absence of pyrilamine maleate). One unit of SRS-A is equivalent to that quantity which will give the same contraction as this amount of histamine. […] After standardization, this SRS-A was stored in small aliquots at -80° C. for further use.

[2] = tested on: Compound B; test: Inhibition of contraction of guinea pig ileum induced by Compound B; format: cell-based; details: Compound B at its EC50, n=1, extrapolated from graph
Experimental: (§1) SRS-A was assayed utilizing the procedure described by Orange and Austen, J. Immunol. 10, 105 (1969) as follows: a 1.5 cm segment of ileum was removed from male guinea pigs weighing from 250 to 300 grams. The segment of ileum was suspended in a 10 ml organ bath containing Tyrodes solution. The ileum was attached to a strain gauge transducer and contractions were recorded on a strip chart recorder. The bath contained 10^-6 M atropine sulfate to block contractions which might be caused by acetylcholine and 10^-6 M pyrilamine maleate to block histamine-induced contractions. The bath was maintained at 37° C. and gassed with a mixture of 95% O2 and 5% CO2. The concentration of SRS-A in the filtrate obtained by challenging lung tissue with egg albumin was determined by comparing the contraction solicited by a given volume of the filtrate with the contraction elicited by […] of histamine (in the absence of pyrilamine maleate). One unit of SRS-A is equivalent to that quantity which will give the same contraction as this amount of histamine. […] After standardization, this SRS-A was stored in small aliquots at -80° C. for further use. […]
(§2) The assay was carried out as described in Example 23. […] The difference in the level of the contraction obtained in the absence and presence of varying concentrations of Compound I was determined. […]

[3] = tested on: Compound E; test: Inhibition of contraction of guinea pig ileum induced by Compound E; format: cell-based; details: Cavia porcellus
[4] = tested on: natural SRS-A; test: Inhibition of contraction of guinea pig ileum induced by natural SRS-A; format: cell-based; details: Cavia porcellus; read-out: IC50 against natural SRS-A
Experimental: as §1, §2

[5] = background, literature; cited from earlier work

EC50 ([1]; Cavia porcellus): 1100 nM
Molecule: CCCCCC#CCC#C/C=C/C=C/[C@@H](SC[C@H](N)C(=O)O)[C@@H](O)CCCC(=O)O [D, (5S,6R) (E,E)-S-(5-hydroxy-1-hydroxy-1-oxoeicosa-7,9-dien-11,14-diyn-6-yl)-L-cysteine mono ammonium salt]

Molecule: CCCc1c(OCC(O)COc2ccc3c(=O)cc(C(=O)O)oc3c2CCC)ccc(C(C)=O)c1O (centres unmarked) [Compound I, 7-[3-(4-acetyl-3-hydroxy-2-propylphenoxy)-2-hydroxypropoxy]-4-oxo-8-propyl-4H-benzopyran-2-carboxylic acid]
IC50 ([2]; Cavia porcellus, read-out: IC50 against Compound B, 3 min preincubation): 35 nM
IC50 ([2]; read-out: IC50 against Compound B, 3 min preincubation): 40 nM
IC50 ([3]; read-out: IC50 against Compound E): 40 nM
IC50 [4]: 37 nM

IC50 ([3]; Example 26, SRS-A active compound used: Compound E, n=1, read-out: IC50 (antagonist against synthetic Compound E)): 10000 nM
Molecule: CCCCCC#CCC#C/C=C/C=C/[C@H]1O[C@@H]1CCCC(=O)OC (relative stereo) [(R,S) (All E)-3-(1,3-tetradecadien-5,8-diynyl)-trans-oxiranebutanoic acid methyl ester]

EC50 [1]: 28 nM
Molecule: (5R,6S) (E,E,Z,Z)-S-(5-hydroxy-1-methoxy-1-oxoeicosa-7,9,11,14-tetraen-6-yl)-L-cysteine mono ammonium salt

Molecule: CCCCCC=CCC=CC=CC=CC(SCC(N)C(=O)O)C(O)CCCC(=O)O (centres unmarked) [compound obtained by Samuelsson]
SRS-A activity [5]: found to have SRS-A activity
